Assays:
[1] = Particle size of micronised drug substance after jet milling; assay type: physicochemical; conditions: after micronisation in jet mill
Description: 37 g of magnesium […] are mixed with 1 kg of crystalline glycopyrronium bromide in a Turbula® blender for 5 hours. The resulting mixture is micronised using a Hosokawa Alpine® 100 AFG fluid bed opposed jet mill with the following parameters: classifier speed, 13000 rpm; milling gas pressure, 3.5 bar. The mill is equipped with 3 nozzles of 1.9 mm diameter.
The resulting mixture has a median particle size of about 3 micron (x90=7 micron, x50=3 micron, x10=1 micron). The magnesium stearate is well distributed over the drug substance surface.
(§1) Drug substance 1:50 g of magnesium stearate are mixed with 1 kg of crystalline glycopyrronium bromide in a Turbula® blender for 5 hours. The resulting mixture is micronised using a Hosokawa Alpine® 100 AFG fluid bed opposed jet mill (equipped with 3 nozzles of 1.9 mm diameter) with the following parameters: classifier speed, 13000 rpm; milling gas pressure, 3.5 bar, to give particles that have an average particle size of less than 5 microns.
as §1, with “2:” for “1:50 g of magnesium stearate are mixed with”, “glycopyrroninum” for “glycopyrronium”, “bromide” for “bromide in a Turbula® blender for 5 hours. The resulting mixture”

[2] = single administration of a metered dose, aerosol formulation, asthma; cited from earlier work

C[N+]1(C)CCC(OC(=O)C(O)(c2ccccc2)C2CCCC2)C1 (centres unmarked) [Drug substance 2, glycopyrroninum bromide]
average particle size [1]: less than 5 microns

C[N+]1(C)CCC(OC(=O)C(O)(c2ccccc2)C2CCCC2)C1.[Br-] (centres unmarked) [glycopyrrolate, 3-[(cyclopentyl-hydroxyphenylacetyl)oxy]-1,1-dimethyl-pyrrolidinium bromide]
duration of bronchodilation [2]: up to 12 hours
